Patent publication US20190380965A1 (priority 2018, published 2019)
Like-named read-outs stand apart in the source and are kept apart here.

Type: physicochemical
Conditions: for drug dissolved in water: 500 mg flucytosine added to 10 mL water
Procedure: The powder and granule pharmaceutical compositions of the present invention dissolve or suspend when added to water quickly. This pharmaceutical composition is therefore termed as “quick water-dispersing”. The term “quick” herein is defined as less than 2 to 3 minutes when shaken gently. In other words, when the granules are added to water, and gently mixed, a suspension is formed in less than 2 to 3 minutes. The “quick water-dispersing” property was achieved by selecting a correct particle size of suspending agent(s) which is the novelty of this invention. The suspension is achieved by simple mixing of powder in water—without use of complex instruments which are available in the home-environment to patients. […] After reaching the gastro-intestinal tract, the remaining drug dissolves. The pharmaceutical compositions according to the present invention provide for an immediate release of the Flucytosine from the dosage form.
USP II apparatus were used and UV-visible spectrometer was used for quantification of Flucytosine from dissolution. […] When we combine other antifungal agents in this formulation, the dissolved fraction of flucytosine will change.

drug dissolved in water: about 150 mg
drug dissolved in water (listed as flucytosine): 150 mg
water needed to dissolve the drug (dose of 500 mg flucytosine): 33.3 mL
Structure (SMILES): Nc1nc(=O)[nH]cc1F [Flucytosine, 5-fluorocytosine]
